We go through six compounds from patent publication US20240000119A1, “MEGASTIGMANE DERIVATIVE COMPOSITIONS AND METHODS FOR TASTE MODULATION” (INTERNATIONAL FLAVORS & FRAGRANCES, priority 2020, published 2024).

Assay [1] is described as follows: Flavor profiles of megastigmane derivative solutions in water compared with sucrose solution. The source says: The flavor profiles of various megastigmane derivative solutions in water including lauroside A (0.5 ppm), ampelopsisionoside (0.5 ppm), bridelionoside F (0.5 ppm), actinidioionoside (0.5 ppm) and roseoside solutions (0.5 ppm) were each compared with that of sucrose solution (1.5%).

The nature of assay [2]: Sweetness enhancement at different concentrations: flavor profile of sucrose base solution with added roseoside. The procedure: (§1) A sucrose base solution (4%) (“base”) was prepared in water.
Roseoside was added to the base to provide a series of solutions with concentrations ranging from 1 ppb to 5 ppm. The flavor profile of the sucrose solution with added roseoside is reported in the following: […]

Assay [3] is described as follows: Enhancement of mouthfeel by roseoside in water.
Assay [4] is described as follows: Enhancement of sucrose sweetness: flavor profile of sucrose base solution with added megastigmane derivative. As to conditions: 0.5 ppm in sucrose base solution (4%). On the procedure:
as §1
Solutions of lauroside A, ampelopsisionoside, bridelionoside F and actinidioionoside were prepared in water (0.01%).
The solutions of lauroside A, ampelopsisionoside, bridelionoside F and actinidioionoside (0.01%) were added to the base, respectively, to a final concentration of 0.5 ppm. The flavor profiles of the sucrose base solution with added megastigmane derivatives are reported in the following: […]

The mark [5] stands for this setting: 0.5 ppm in water, compared with sucrose solution (1.5%).

As for `CC(/C=C/C1(O)C(C)CC(=O)CC1(C)C)OC1OC(CO)C(O)C(O)C1O` (stereo not shown) [Ampelopsisionoside, ampelopsisionoside], in assay [1] (setting [5]), the “sweet taste (flavor profile)” value is on record as “none of the megastigmane derivation solutions exhibited a sweet taste”.

Regarding `CC1=CC(=O)CC(C)(C)C1(O)/C=C/C(C)OC1OC(CO)C(O)C(O)C1O` (stereo not shown) [Roseoside, roseoside], the “sweet taste (flavor profile)” value in assay [1] (setting [5]) is “none of the megastigmane derivation solutions exhibited a sweet taste”. In addition, the “Flavor Profile” value in assay [2] (1 ppb in sucrose base solution (4%)) was “Slightly enhanced sweetness and viscous mouthfeel”; in assay [2] (1 ppm in sucrose base solution (4%)), “Slightly enhanced and lingering sweetness, viscous”; in assay [2] (5 ppm in sucrose base solution (4%)) it was “More enhanced and lingering sweetness, slight”; in assay [2] (10 ppb in sucrose base solution (4%)) it was “Slightly enhanced and lingering sweetness, viscous”; in assay [2] (100 ppb in sucrose base solution (4%)) it was “Slightly enhanced and lingering sweetness, viscous”; in assay [3] (0.5 ppm in water), “Slight astringency, not sweet”. Besides, the “Flavor Profile” value in assay [3] (2 ppm in water) is listed as “Slight astringency, very slight bitterness, slightly”.

On to `CC(/C=C/C1(O)C(C)(C)CC(O)CC1(C)O)OC1OC(CO)C(O)C(O)C1O` (stereo not shown) [Actinidioionoside, actinidioionoside], for which, in assay [1] (setting [5]), the “sweet taste (flavor profile)” value was “none of the megastigmane derivation solutions exhibited a sweet taste”. Moreover, the “Flavor Profile” value in assay [4] is “Enhanced sweetness and mouthfeel”.

Turning to `OC[C@H]1O[C@@](CO)(O[C@H]2O[C@H](CO)[C@@H](O)[C@H](O)[C@H]2O)[C@@H](O)[C@@H]1O` [sucrose, reference compound], the “sweet taste (flavor profile)” value in assay [1] (sucrose solution (1.5%)) is reported as “tasted slightly sweet”.

Consider `CC1=C(/C=C/C(C)OC2OC(CO)C(O)C(O)C2O)C(C)(C)CC(O)C1O` (stereo not shown) [Bridelionoside F, bridelionoside F], for which, in assay [1] (setting [5]), the “sweet taste (flavor profile)” value is recorded as “none of the megastigmane derivation solutions exhibited a sweet taste”. Moreover, in assay [4], the “Flavor Profile” value was “Enhanced sweetness and mouthfeel with para”.

Take `CC(/C=C/C1(O)C(C)CC(=O)CC1(C)C)OC1OC(CO)C(O)C(O)C1O` (stereo not shown) [Lauroside A, lauroside A]: the “sweet taste (flavor profile)” value in assay [1] (setting [5]) was “none of the megastigmane derivation solutions exhibited a sweet taste”. Moreover, the “Flavor Profile” value in assay [4] is “Enhanced sweetness and mouthfeel, mouth coating,”.
